Data taken from patent publication US9828326B2, “Amooranin compounds and analogs thereof and related methods of use” (priority 2011, dated 2017).
Marks after values point to notes of the source that are not given here.

Tests used:
[1] = system: breast cancer cells; conditions: cited from earlier work
[2] = system: β-catenin; assay: Immunohistochemistry of β-catenin in mammary tumors; format: in vivo, Sprague-Dawley rats; conditions: 0.8 mg/kg or 1.2 mg/kg + DMBA
Description: (§1) Serial sections of tumor tissue were used processed for immunohistochemical analysis. Cell proliferation was studied by immunohistochemical detection of proliferating cell nuclear antigen (PCNA) as a proliferation marker. The analysis of apoptotic cells in tumor sections were performed by using TdT-FragEL™ DNA fragmentation detection assay kit (EMD Biosciences, Inc., San Diego, Calif.). The protein expression of Bax (apoptosis inducer),Bcl-2 (apoptosis repressor), ER-a, ER-β, cyclin D1 and β-catenin were determined. The immunohistochemical slides were visualized under a light microscope (BX43, Olympus, Center Valley, Pa.) and at least 1,000 cells/animal were analyzed. Results were expressed as percentage of immunopositive cells.

[3] = system: PARP; assay: RT-PCR of tumor samples, PARP; format: in vivo, Sprague-Dawley rats; conditions: tumors of AMR-Me + DMBA rats
Description: (§2) Total RNA from 20 mg of tumor sample was extracted using Quick RNA® mini Prep kit following the manufacturer's instructions. The expression levels of apoptotic and anti-apoptotic genes were monitored by reverse transcription-polymerase chain reaction (RT-PCR) using the cDNA verso kit with a temperature scale of 42° C. for 30 min for reverse transcription, and 32 cycles of 94° C. for 30 s, 56° C. for 30 s, and 72° C. for 30 s. The RT-PCR was carried out using the primers: […]
(§3) The PCR products were analyzed on 1% agarose gel and visualized by ethidium bromide staining.

[4] = design: species or system Sprague-Dawley rats; conditions: rat, in vivo, 1.6 mg/kg
Description: The possible toxicity of high dose (1.6 mg/kg) of AMR-Me was studied by investigating hepatic and renal histopathological characteristics using H&E staining.

[5] = mice; cited from earlier work
[6] = system: Bax; assay: Western blot of Bax in tumor tissue; format: in vivo, Sprague-Dawley rats; conditions: all doses (0.8, 1.2, 1.6 mg/kg) + DMBA
Description: (§4) Total proteins were extracted from tumor tissues with lysis buffer (containing 20 mM HEPES, 350 mM NaCl, […], 1 mM MgCh, 20% glycerol, and 1% NP-40), boiled and separated by 4-20% gradient sodium dodecyl sulfate-polyacrylamide gel electrophoresis. The proteins were transferred to polyvinylidene fluoride membranes (Santa Cruz Biotechnology Inc., Santa Cruz, Calif.), and reacted with primary mouse monoclonal antibodies to Bax, Bcl-2, Bel-XL and β-Actin (dilution 1:200) and subsequently with anti-mouse secondary antibodies (dilution 1:1,000) conjugated to horseradish peroxidase. The immunoreactions were detected by an enhanced chemiluminescence detection kit (Them10 Scientific, Rockford, Ill.) and relative intensities of bands on blots were quantitated by autoluminography using a Kodak digital imaging system. Normalization of Western blot was ensured by β-Actin.

[7] = system: cyclin D1; assay: Immunohistochemistry of cyclin D1 in mammary tumors; format: in vivo, Sprague-Dawley rats; conditions: medium (1.2 mg/kg) or high (1.6 mg/kg) dose + DMBA, vs DMBA control
Description: as §1

[8] = system: breast cancer MCF-7 cells; conditions: in vitro; cited from earlier work
[9] = system: Bax; assay: RT-PCR of tumor samples, BAX; format: in vivo, Sprague-Dawley rats; conditions: tumors of AMR-Me + DMBA rats
Description: as §2, §3

[10] = system: proliferating cell nuclear antigen (PCNA); assay: Immunohistochemical detection of PCNA in tumor sections (cell proliferation); format: in vivo, Sprague-Dawley rats
Description: as §1

[11] = system: BCL2; assay: RT-PCR of tumor samples, BCL2; format: in vivo, Sprague-Dawley rats; conditions: tumors of AMR-Me + DMBA rats
Description: as §2, §3

[12] = system: Bcl-2; assay: Western blot of Bcl-2 in tumor tissue; format: in vivo, Sprague-Dawley rats
Description: as §4

[13] = system: DMBA-induced mammary tumorigenesis; assay: Chemoprevention of DMBA-induced mammary tumorigenesis; conditions: for No. of rats with tumors/total rats / Total tumor burden / Tumor Incidence / Average tumor weight: + DMBA; for Average tumor weight: mean±SEM
Description: Following an acclimatization period of one week, rats (−43 days of age) were randomly divided into six groups of 7-11 animals in each. […] Two groups (groups A and B) were maintained on the basal diet without any further treatment, whereas the remaining four groups (groups C, D, E and F) were fed with AMR-Me through oral gavage three times a week (Monday-Wednesday-Friday). AMR-Me was mixed in polyethylene glycol (Sigma-Aldrich, St. Louis, Mo.) and administered by gently securing the animal by holding the skin back of its head and delivering the drug slowly via an animal feeding needle (Popper and Sons, Inc., New Hyde Park, N.Y.) attached to a I-ml syringe (Becton Dickinson, Franklin Lakes, N.J.). This technique ensured the accurate oral dosing of the test material. Three doses of AMR-Me were used: 0.8 mg/kg (for group C), 1.2 mg/kg (for group D) and 1.6 mg/kg (for groups E and F). These three doses (low, medium and high) represent 40, 60 and 80% of calculated maximum tolerated dose (MTD) in rats, respectively. The rat MTD was calculated based on the MTD in mice (3 mg/kg/day).
Following two week of aforementioned treatment regimen, at −57 days of age, mammary carcinogenesis was initiated in all animals belonging to groups B, C, D and E by a single administration of the mammary carcinogen, DMBA at 50 mg/kg body weight by gavage. The DMBA was dissolved in corn oil. This dose of DMBA was chosen so that substantial tumor incidence could be produced but not so high as to overwhelm the chemopreventive action of AMR-Me. Oral treatment of rats with AMR-Me in groups C, D, E and F were continued for 16 weeks following the DMBA administration (i.e., a total period of 18 weeks). Food and water intake as well as behavioral patterns were monitored daily and body weights of animals were recorded every alternate week.
Animals were palpated along the milk line twice a week starting 4 weeks following DMBA treatment to detect the presence of mammary tumors. All animals were sacrificed at 16 weeks post-DMBA treatment (i.e., 18 weeks following the start of the experiment).
Following an overnight fast, animals from each group were anesthetized between 09:00 and 11:00 h by intramuscular injection of 40-87 mg/kg ketamine and 5-13 mg/kg xylazine. The skin was dissected out to expose mammary tumors. The tumors (approximated spheres) were separated from mammary gland parenchyma, carefully excised, rinsed with phosphate-buffered saline (pH 7.4) to flush out any blood, blotted dry on a paper towel, weighed, and photographed. Each tumor was measured in two perpendicular directions with a vernier caliper to the nearest mm to obtain an average diameter. The representative tumor tissue as well liver and kidney were harvested and either immediately flash frozen in liquid nitrogen for molecular work or fixed in 4% paraformaldehyde. Later, serial tumor sections (−15-μm thick) were prepared using a microtome. These sections were used for histopathological assessment by hematoxylin and eosin (H&E) staining.

[14] = system: ER-α; assay: Immunohistochemistry of ER-α in mammary tumors; format: in vivo, Sprague-Dawley rats; conditions: low (0.8 mg/kg) or medium (1.2 mg/kg) dose + DMBA
Description: as §1

[15] = system: BAD; assay: RT-PCR of tumor samples, BAD; format: in vivo, Sprague-Dawley rats; conditions: tumors of AMR-Me + DMBA rats
Description: as §2, §3

[16] = system: Bcl-2; assay: Immunohistochemistry of Bcl-2 in mammary tumors; format: in vivo, Sprague-Dawley rats
Description: as §1

[17] = system: Bax; assay: Immunohistochemistry of Bax in mammary tumors; format: in vivo, Sprague-Dawley rats
Description: as §1

[18] = system: apoptotic cells in tumor sections; assay: TdT-FragEL DNA fragmentation detection assay in tumor sections (apoptosis); format: in vivo, Sprague-Dawley rats
Description: as §1

[19] = system: CASP3; assay: RT-PCR of tumor samples, CASP3; format: in vivo, Sprague-Dawley rats; conditions: tumors of AMR-Me + DMBA rats
Description: as §2, §3

[20] = General observations: body weight, food and water intake; format: in vivo, Sprague-Dawley rats
Description: The DMBA was dissolved in corn oil.

[21] = system: CASP7; assay: RT-PCR of tumor samples, CASP7; format: in vivo, Sprague-Dawley rats; conditions: tumors of AMR-Me + DMBA rats
Description: as §2, §3

[22] = group C: 0.8 mg/kg oral three times a week, 18 weeks
[23] = group D: 1.2 mg/kg oral three times a week, 18 weeks
[24] = group E: 1.6 mg/kg oral three times a week, 18 weeks
[25] = medium (1.2 mg/kg) or high (1.6 mg/kg) dose + DMBA

CC1(C)CC[C@]2(C(=O)O)CC[C@]3(C)C(=CC[C@@H]4[C@@]5(CO)CCC(=O)C(C)(C)[C@@H]5CC[C@]43C)[C@@H]2C1 [AMR, 25-Hydroxy-3-oxoolean-12-en-28-oic Acid]
anti-neoplastic activity ([1]; plant-derived compound): relatively weak

COC(=O)[C@]12CCC(C)(C)C[C@H]1C1=CC[C@@H]3[C@@]4(CO)CCC(=O)C(C)(C)[C@@H]4CC[C@@]3(C)[C@]1(C)CC2 [AMR-Me, 25-hydroxy-3-oxoolean-12-en-28-oic Acid Methyl Ester]
cytosolic β-catenin expression [2]: significant (P<0.001) decrease
nuclear β-catenin expression [2]: significant (P<0.001) decrease
PARP mRNA level (RT-PCR) [3]: up-regulation
hepatotoxicity (hepatic histopathology) [4]: no hepatotoxicity was observed
nephrotoxicity (renal histopathology) [4]: did not exhibit any nephrotoxicity
maximum tolerated dose (MTD) [5]: 3 mg/kg/day
Bax expression (Western blot) [6]: elevated the Bax expression
percentage of cyclin D1-positive cells [7]: significant (P<0.05 or 0.001) decrease
potency against MCF-7 cells, concentrations [8]: down to the nanomolar range
BAX mRNA level (RT-PCR) [9]: up-regulation
inhibition of proliferation of several breast cancer cells, potency ([1]; relative to the parent compound): greater potency than the parent compound AMR
proliferation of tumor cells (PCNA-positive cells) ([10]; low dose 0.8 mg/kg + DMBA): marginal reduction in the proliferation of tumor cells
PCNA labeling index (LI) ([10]; medium (1.2 mg/kg) or high (1.6 mg/kg) dose + DMBA, vs DMBA control): statistically significant (P<0.001) decrease
BCL2 mRNA level (RT-PCR) [11]: down-regulation
Bcl-2 expression (Western blot) ([12]; high dose 1.6 mg/kg + DMBA): complete abrogation
Bcl-2 expression (Western blot) ([12]; low or medium dose + DMBA): did not modify Bel-2 expression
No. of rats with tumors/total rats [13, 22]: 5/8
Total tumor burden [13, 22]: 57.5 g
Tumor Incidence [13, 22]: 62%
Average tumor weight [13, 22]: 11.5 ± 4.9 ^ g
No. of rats with tumors/total rats [13, 23]: 2/7
Total tumor burden [13, 23]: 9.6 g
Tumor Incidence [13, 23]: 28^a %
Average tumor weight [13, 23]: 3.2 ± 1.5^b g
No. of rats with tumors/total rats [13, 24]: 2/7
Total tumor burden [13, 24]: 0.8 g
Tumor Incidence [13, 24]: 28^a %
Average tumor weight [13, 24]: 0.38 ± 0.03^b g
visible mammary tumors in AMR-Me control ([13]; group F: 1.6 mg/kg without DMBA, 18 weeks): no visible mammary tumors
improvement of cellular architecture in tumor tissue (H&E) ([13]; high dose 1.6 mg/kg + DMBA): substantial improvement of cellular architecture
size of tumors ([13]; high dose 1.6 mg/kg + DMBA): striking reduction in size
size of tumors ([13]; low dose 0.8 mg/kg + DMBA): reduced the size of tumors
tumor histopathological features (H&E) ([13]; low dose 0.8 mg/kg + DMBA): did not modify tumor histopathological features
improvement of cellular architecture in tumor tissue (H&E) ([13]; medium dose 1.2 mg/kg + DMBA): moderate
size of tumors ([13]; medium dose 1.2 mg/kg + DMBA): further decrease in the size of tumor
intra-tumor expression of ER-α [14]: reduced
ratio of ER-α/ER-β [14]: concomitant drop
BAD mRNA level (RT-PCR) [15]: up-regulation
expression of cytoplasmic Bcl-2 ([16]; low dose 0.8 mg/kg + DMBA): not altered
Bcl-2-positive cells [16, 25]: significant (P<0.005 or 0.001) reduction
frequency of Bax-immunopositive cells ([17]; low dose 0.8 mg/kg + DMBA): extremely low
Bax/Bcl-2 ratio [17, 25]: elevated the Bax/Bcl-2 ratio in a dose-responsive manner
Bax-positive cells ([17]; medium (1.2 mg/kg) or high (1.6 mg/kg) dose + DMBA, vs DMBA alone): significantly (P<0.001) increased
apoptotic index (AI) ([18]; low dose 0.8 mg/kg + DMBA, vs DMBA control): no noticeable difference
apoptotic index (AI) ([18]; medium (1.2 mg/kg) or high (1.6 mg/kg) dose + DMBA, vs DMBA): significant increase (P<0.001)
CASP3 mRNA level (RT-PCR) [19]: up-regulation
body weights among rat groups ([20]; 0.8, 1.2 or 1.6 mg/kg, any time point): No significant difference
food and water intakes ([20]; normal animals, 1.6 mg/kg body weight, 18 weeks): unaltered
CASP7 mRNA level (RT-PCR) [21]: up-regulation
